Laboratory results reported in patent US6143739A, “Basic proline-amide derivatives of GE 2270 and GE 2270-like antibiotics” (Biosearch Italia S.p.A., priority 1995, dated 2000).

Key:
[1] = test system: Bacteroides fragilis ATCC 25285 L1011; experiment: MIC by microbroth dilution; assay type: cell-based; details: 0.01% (w/v) BSA, 10^5 CFU/ml, read after 48 h, 37° C., anaerobic N2-CO2-H2, Wilkins-Chalgren broth
Procedure: (§1) The minimal inhibitory concentration (MIC) has been determined by microbroth dilution methodology, in the presence of 0.01% (w/v) of bovine serum albumin (BSA). BSA is added to the diluent to avoid possible adherence of the compounds of the invention to the plastic surface of the microtiter wells, as disclosed also by B. Goldstein et al., Antimicrobial Agents and Chemotherapy, 37 (1993), 741-745.
(§2) Inocula were 10^4 CFU/ml, except for Propionibacterium acnes and Bacteroides fragilis (10^5 CFU/ml).
(§3) MICs were read after 18-24 h, except for Haemophilus influenzae, P. acnes, B. fragilis (48 h).
(§4) All microorganisms were incubated at 37° C.; H. influenzae in a 5% CO2 atmosphere, anaerobes in a N2 --CO2 --H2 (80:10:10) mixture; other organisms in air.
(§5) The growth media are: Oxoid Iso-Sensitest broth for staphylococci and Enterococcus faecalis); Difco Todd Hewitt broth for streptococci; Difco brain heart infusion broth+1% Difco Supplement C for H. influenzae; Difco Wilkins-Chalgren broth for anaerobes.

[2] = test system: Staph. epidermidis ATCC 12228 L147; experiment: MIC by microbroth dilution; assay type: cell-based; details: 0.01% (w/v) BSA, 10^4 CFU/ml, read after 18-24 h, 37° C., Iso-Sensitest broth
Procedure: as §1, §2, §3, §4, §5

Staph. haemolyticus L602 = experiment: MIC by microbroth dilution; assay type: cell-based; details: 0.01% (w/v) BSA, 10^4 CFU/ml, read after 18-24 h, 37° C., Iso-Sensitest broth
Procedure: as §1, §2, §3, §4, §5

[3] = test system: Staphylococcus aureus L165; experiment: MIC by microbroth dilution; assay type: cell-based; details: 0.01% (w/v) BSA, 10^4 CFU/ml, read after 18-24 h, 37° C., Iso-Sensitest broth
Procedure: as §1, §2, §3, §4, §5

Strept. sanguis L1721 = experiment: MIC by microbroth dilution; assay type: cell-based; details: 0.01% (w/v) BSA, 10^4 CFU/ml, read after 18-24 h, 37° C., Todd Hewitt broth
Procedure: as §1, §2, §3, §4, §5

[4] = test system: Streptococcus pyogenes L49; experiment: MIC by microbroth dilution; assay type: cell-based; details: 0.01% (w/v) BSA, 10^4 CFU/ml, read after 18-24 h, 37° C., Todd Hewitt broth
Procedure: as §1, §2, §3, §4, §5

Strept. pneumoniae L44 = experiment: MIC by microbroth dilution; assay type: cell-based; details: 0.01% (w/v) BSA, 10^4 CFU/ml, read after 18-24 h, 37° C., Todd Hewitt broth
Procedure: BSA is added to the diluent to avoid possible adherence of the compounds of the invention to the plastic surface of the microtiter wells, as disclosed also by B. Goldstein et al., Antimicrobial Agents and Chemotherapy, 37 (1993), 741-745. Inocula were 10^4 CFU/ml, except for Propionibacterium acnes and Bacteroides fragilis (10^5 CFU/ml). MICs were read after 18-24 h, except for Haemophilus influenzae, P. acnes, B. fragilis (48 h). All microorganisms were incubated at 37° C.; H. influenzae in a 5% CO2 atmosphere, anaerobes in a N2 --CO2 --H2 (80:10:10) mixture; other organisms in air. The growth media are: Oxoid Iso-Sensitest broth for staphylococci and Enterococcus faecalis); Difco Todd Hewitt broth for streptococci; Difco brain heart infusion broth+1% Difco Supplement C for H. influenzae; Difco Wilkins-Chalgren broth for anaerobes.

[5] = test system: Enterococc. faecalis ATCC 7080 L149; experiment: MIC by microbroth dilution; assay type: cell-based, Enterococcus faecalis; details: 0.01% (w/v) BSA, 10^4 CFU/ml, read after 18-24 h, 37° C., Iso-Sensitest broth
Procedure: as §1, §2, §3, §4, §5

[6] = test system: Propionibact. acnes ATCC 6919 L1014; experiment: MIC by microbroth dilution; assay type: cell-based, Propionibacterium acnes; details: 0.01% (w/v) BSA, 10^5 CFU/ml, read after 48 h, 37° C., anaerobic N2-CO2-H2, Wilkins-Chalgren broth
Procedure: as §1, §2, §3, §4, §5

[7] = test system: Haemoph. influenzae ATCC 19418 L970; experiment: MIC by microbroth dilution; assay type: cell-based, Haemophilus influenzae; details: 0.01% (w/v) BSA, 10^4 CFU/ml, read after 48 h, 37° C., 5% CO2, brain heart infusion broth+1% Supplement C
Procedure: as §1, §2, §3, §4, §5

Strept. agalactiae L310 = experiment: MIC by microbroth dilution; assay type: cell-based; details: 0.01% (w/v) BSA, 10^4 CFU/ml, read after 18-24 h, 37° C., Todd Hewitt broth
Procedure: as §1, §2, §3, §4, §5

staphylococci isolates = experiment: MIC on clinical isolates; assay type: cell-based; details: highest MIC observed
streptococci isolates = experiment: MIC on clinical isolates; assay type: cell-based; details: highest MIC observed
enterococci isolates = experiment: MIC on clinical isolates; assay type: cell-based; details: highest MIC observed
S. aureus (L819) = experiment: experimental septicemia in the mouse; assay type: in vivo; details: immunocompetent CD-1 mice infected i.p.; intravenously once, immediately after infection; survival on the 7th day
Procedure: (§6) The antimicrobial activity of the compounds of the invention is confirmed also in experimental septicemia in the mouse. Control and treatment groups contain ten CD-1 mice (Charles River) weighing 18-22 g. Two groups of immunocompetent mice are infected intraperitoneally with 0.5 ml of bacterial suspension prepared by diluting an overnight culture of S. aureus ([…]) or S. pyogenes ([…]) with sterile peptonized saline, while one group of neutropenic mice is infected intraperitoneally with 0.5 ml of bacterial suspension prepared by diluting an overnight culture of or E. faecalis ([…]) with sterile peptonized saline. Inocula are adjusted so that untreated animals died of septicemia within 48 h. The compound to be tested is administered intravenously once, immediately after infection with S. aureus, or twice, immediately and 5 hours after infection with S. pyogenes or E. faecalis. On the 7th day, the ED50 in mg/kg is calculated by the method of Spearman and Kraber (D. J. Finney "Statistical Methods in Biological Assay", Griffin, page 524, 1952) from the percentage of surviving animals at each dose.

S. pyogenes (L49) = experiment: experimental septicemia in the mouse; assay type: in vivo; details: immunocompetent CD-1 mice infected i.p.; intravenously twice, immediately and 5 hours after infection; survival on the 7th day
Procedure: as §6

E. faecalis (L1139) = experiment: experimental septicemia in the mouse (neutropenic); assay type: in vivo; details: neutropenic CD-1 mice infected i.p.; intravenously twice, immediately and 5 hours after infection; survival on the 7th day
Procedure: as §6

gram positive bacteria = details: described by K. Shimanaka et al.; cited from earlier work

Structure (SMILES) | MIC of the compounds, Bacteroides fragilis ATCC 25285 L1011 [1] [µg/mL] | MIC of the compounds, Staph. epidermidis ATCC 12228 L147 [2] [µg/mL] | MIC of the compounds, Staph. haemolyticus L602 (Staph. haemolyticus L602) [µg/mL] | MIC of the compounds, Staphylococcus aureus L165 [3] [µg/mL] | MIC of the compounds, Strept. sanguis L1721 (Strept. sanguis L1721) [µg/mL] | MIC of the compounds, Streptococcus pyogenes L49 [4] [µg/mL] | MIC of the compounds, Strept. pneumoniae L44 (Strept. pneumoniae L44) [µg/mL] | MIC of the compounds, Enterococc. faecalis ATCC 7080 L149 [5] [µg/mL] | MIC of the compounds, Propionibact. acnes ATCC 6919 L1014 [6] [µg/mL] | MIC of the compounds, Haemoph. influenzae ATCC 19418 L970 [7] [µg/mL] | MIC of the compounds, Strept. agalactiae L310 (Strept. agalactiae L310) [µg/mL] | MIC against staphylococci isolates (staphylococci isolates) [µg/mL] | MIC against streptococci isolates (streptococci isolates) [µg/mL] | MIC against enterococci isolates (enterococci isolates) [µg/mL] | ED50 in experimental septicemia, S. aureus (L819) (S. aureus (L819)) [mg/kg/dose] | ED50 in experimental septicemia, S. pyogenes (L49) (S. pyogenes (L49)) [mg/kg/dose] | ED50 in experimental septicemia, E. faecalis (L1139) (E. faecalis (L1139)) [mg/kg/dose] | antimicrobial activity against gram positive bacteria (gram positive bacteria)
CCN(CC)CCNC(=O)C1CCCN1C(=O)C1COC(c2csc(-c3ccc4c(n3)-c3csc(n3)-c3csc(n3)C(C(O)c3ccccc3)NC(=O)CNC(=O)c3nc(sc3COC)C(C(C)C)NC(=O)c3nc(sc3C)C(CC(=O)NC)NC(=O)c3csc-4n3)n2)=N1 (mixture of isomers) [Compound 3] | 8 | 0.13 | 0.13 | 0.03 | 0.25 | 0.5 | 0.13 | 0.03 | 0.03 | 8 | – | – | – | – | – | – | – | –
CNC(=O)CC1NC(=O)c2csc(n2)-c2ccc(-c3nc(C4=NC(C(=O)N5CCCC5C(=O)N(C)CCN(C)C)CO4)cs3)nc2-c2csc(n2)-c2csc(n2)C(C(O)c2ccccc2)NC(=O)CNC(=O)c2nc(sc2COC)C(C(C)C)NC(=O)c2nc1sc2C (mixture of isomers) [Compound 5] | – | – | – | 0.06 | 0.25 | 1 | 0.25 | – | – | 128 | – | – | – | – | – | – | – | –
CCN(CC)CCNC(=O)C1CCCN1C(=O)C1COC(c2csc(-c3ccc4c(n3)-c3csc(n3)-c3csc(n3)C(C(O)c3ccccc3)NC(=O)CNC(=O)c3nc(sc3COC)C(C(C)C)NC(=O)c3nc(sc3C)C(CC(=O)NC)NC(=O)c3csc-4n3)n2)=N1 (stereo not drawn) [Compound 3s] | 8 | 0.13 | 0.13 | 0.06 | 0.13 | 0.25 | 0.13 | 0.06 | 0.03 | 8 | 0.5 | ≤ 0.5 | ≤ 1.0 | ≤ 0.13 | 1.5 | 7 | 0.67 | –
CNC(=O)CC1NC(=O)c2csc(n2)-c2ccc(-c3nc(C4=NC(C(=O)N5CCCC5C(N)=O)CO4)cs3)nc2-c2csc(n2)-c2csc(n2)C(C(C)C)NC(=O)CNC(=O)c2csc(n2)C(C(C)C)NC(=O)c2nc1sc2C (stereo not drawn) [amythiamicin factor A] | – | – | – | – | – | – | – | – | – | – | – | – | – | – | – | – | – | shows antimicrobial activity against gram positive bacteria
